Measurements as given in PubChem BioAssay AID200 (DTP/NCI, 2004).
Several values for one entry are separate records, joined by “and”; a condition that tells them apart may be missing. Equal entries are not always repeated. Inconclusive results and toxic doses are left out. How the source made its calls: active means survival T/C of 150% or more; inactive means T/C below 125% in these data. Where a SMILES comes first, the peptide text is derived from it. Bridges are numbered along the chain shown (N, C = ends).

System: B6C3F1 mice, B16 melanoma ip, median survival T/C
Experiment: NCI In Vivo Anticancer Drug Screen. Data for tumor model B16 Melanoma (intraperitoneal) in B6C3F1 mice
Conditions: endpoint: median survival time, higher = longer survival
Procedure, shortened: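 Antitumor effect was judged in mice with transplanted tumors by dividing the treated group's survival measure by that of vehicle controls.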

[1] = dose: 6.25 mg/kg/injection, schedule: Q01DX009 (ip), vehicle: saline with Tween-80
[2] = dose: 12.5 mg/kg/injection, schedule: Q01DX009 (ip), vehicle: saline with Tween-80
[3] = dose: 25.0 mg/kg/injection, schedule: Q01DX009 (ip), vehicle: saline with Tween-80
[4] = dose: 50.0 mg/kg/injection, schedule: Q01DX009 (ip), vehicle: saline with Tween-80
[5] = dose: 100.0 mg/kg/injection, schedule: Q01DX009 (ip), vehicle: saline with Tween-80
[6] = dose: 12.0 mg/kg/injection, schedule: Q01DX009 (ip), vehicle: Klucel (hydroxypropylcellulose) (HPC)
[7] = dose: 50.0 mg/kg/injection, schedule: Q01DX009 (ip), vehicle: Klucel (hydroxypropylcellulose) (HPC)
[8] = dose: 100.0 mg/kg/injection, schedule: Q01DX009 (ip), vehicle: Klucel (hydroxypropylcellulose) (HPC)
[9] = dose: 200.0 mg/kg/injection, schedule: Q01DX009 (ip), vehicle: Klucel (hydroxypropylcellulose) (HPC)
[10] = dose: 200.0 mg/kg/injection, schedule: Q01DX009 (ip), vehicle: saline with Tween-80
[11] = dose: 50.0 mg/kg/injection, schedule: Q01DX009 (ip), vehicle: saline
[12] = dose: 100.0 mg/kg/injection, schedule: Q01DX009 (ip), vehicle: saline
[13] = dose: 400.0 mg/kg/injection, schedule: Q01DX009 (ip), vehicle: saline with Tween-80

Measured: T/C

Cn1c(N)c(N=Nc2ccccc2Cl)c(=O)n(C)c1=O
inactive: [1] 92 % of control | [2] 101 % of control | [3] 89 % of control | [4] 92 % of control and 104 % of control | [5] 104 % of control

C=C1C(C)C2C(Cc3ccccc3)NC(=O)C23C(OC(C)=O)/C=C/C(C)(O)CC(C)C/C=C/C3C1O (stereo unspecified)
inactive: dose: 0.37 mg/kg/injection, schedule: Q01DX009 (ip), vehicle: Klucel (hydroxypropylcellulose) (HPC) 112 % of control and 99 % of control | dose: 0.75 mg/kg/injection, schedule: Q01DX009 (ip), vehicle: Klucel (hydroxypropylcellulose) (HPC) 110 % of control and 100 % of control and 101 % of control | dose: 1.5 mg/kg/injection, schedule: Q01DX009 (ip), vehicle: Klucel (hydroxypropylcellulose) (HPC) 115 % of control and 98 % of control and 103 % of control | dose: 1.56 mg/kg/injection, schedule: Q01DX009 (ip), vehicle: saline with Tween-80 124 % of control | dose: 3.0 mg/kg/injection, schedule: Q01DX009 (ip), vehicle: Klucel (hydroxypropylcellulose) (HPC) 112 % of control and 115 % of control and 105 % of control | dose: 3.13 mg/kg/injection, schedule: Q01DX009 (ip), vehicle: saline with Tween-80 111 % of control | dose: 6.0 mg/kg/injection, schedule: Q01DX009 (ip), vehicle: Klucel (hydroxypropylcellulose) (HPC) 103 % of control | [1] 113 % of control | [6] 103 % of control

CC(C)(C)OC(=O)N1CCCC1C(=O)O (stereo unspecified)
inactive: dose: 22.5 mg/kg/injection, schedule: Q01DX009 (ip), vehicle: Klucel (hydroxypropylcellulose) (HPC) 100 % of control | dose: 45.0 mg/kg/injection, schedule: Q01DX009 (ip), vehicle: Klucel (hydroxypropylcellulose) (HPC) 102 % of control | dose: 90.0 mg/kg/injection, schedule: Q01DX009 (ip), vehicle: Klucel (hydroxypropylcellulose) (HPC) 90 % of control

O=C1CNC(=O)N1CN1CCOCC1
inactive: [7] 94 % of control | [8] 94 % of control | [9] 115 % of control | dose: 400.0 mg/kg/injection, schedule: Q01DX009 (ip), vehicle: Klucel (hydroxypropylcellulose) (HPC) 101 % of control

C1CN1P1(N2CC2)=NP(N2CC2)(N2CC2)=NP(N2CC2)(N2CC2)=NP(N2CC2)(N2CC2)=N1
inactive: dose: 1.0 mg/kg/injection, schedule: Q01DX009 (ip), vehicle: saline 95 % of control and 98 % of control | dose: 1.0 mg/kg/injection, schedule: Q02DX009 (ip), vehicle: saline 91 % of control and 97 % of control | dose: 2.0 mg/kg/injection, schedule: Q01DX009 (ip), vehicle: saline 92 % of control and 96 % of control | dose: 2.0 mg/kg/injection, schedule: Q02DX009 (ip), vehicle: saline 91 % of control and 97 % of control | dose: 4.0 mg/kg/injection, schedule: Q01DX009 (ip), vehicle: saline 109 % of control and 95 % of control | dose: 4.0 mg/kg/injection, schedule: Q02DX009 (ip), vehicle: saline 91 % of control and 98 % of control | dose: 8.0 mg/kg/injection, schedule: Q01DX009 (ip), vehicle: saline 89 % of control and 107 % of control | dose: 8.0 mg/kg/injection, schedule: Q02DX009 (ip), vehicle: saline 90 % of control and 97 % of control | dose: 16.0 mg/kg/injection, schedule: Q01DX009 (ip), vehicle: saline 91 % of control and 100 % of control | dose: 16.0 mg/kg/injection, schedule: Q02DX009 (ip), vehicle: saline 112 % of control | dose: 32.0 mg/kg/injection, schedule: Q01DX009 (ip), vehicle: saline 109 % of control and 91 % of control | dose: 32.0 mg/kg/injection, schedule: Q02DX009 (ip), vehicle: saline 88 % of control and 103 % of control | dose: 64.0 mg/kg/injection, schedule: Q01DX009 (ip), vehicle: saline 109 % of control and 90 % of control | dose: 64.0 mg/kg/injection, schedule: Q02DX009 (ip), vehicle: saline 94 % of control and 100 % of control

Nc1ccc(OCCCc2c(-c3ccccc3)nc(N)[nH]c2=O)cc1
inactive: [3] 121 % of control | [4] 102 % of control | [5] 118 % of control | [10] 96 % of control

C=C1CCC[C@@]2(C)CC[C@@H](/C(C)=C\C=C\C(C)(C)O)C[C@H]12
inactive: dose: 12.5 mg/kg/injection, schedule: Q01DX009 (ip), vehicle: Klucel + Tween-80 113 % of control | dose: 25.0 mg/kg/injection, schedule: Q01DX009 (ip), vehicle: Klucel + Tween-80 106 % of control | dose: 50.0 mg/kg/injection, schedule: Q01DX009 (ip), vehicle: Klucel + Tween-80 107 % of control | dose: 100.0 mg/kg/injection, schedule: Q01DX009 (ip), vehicle: Klucel + Tween-80 112 % of control | dose: 200.0 mg/kg/injection, schedule: Q01DX009 (ip), vehicle: Klucel + Tween-80 90 % of control

CN1CCCN(C(c2ccccc2)c2ccc(Br)cc2)CC1 (stereo unspecified)
inactive: dose: 18.0 mg/kg/injection, schedule: Q01DX009 (ip), vehicle: saline 98 % of control | dose: 36.0 mg/kg/injection, schedule: Q01DX009 (ip), vehicle: saline 92 % of control

Nc1ncc(S(=O)(=O)c2ccc([N+](=O)[O-])cc2)c(N)n1
inactive: dose: 75.0 mg/kg/injection, schedule: Q01DX009 (ip), vehicle: saline 100 % of control | dose: 150.0 mg/kg/injection, schedule: Q01DX009 (ip), vehicle: saline 102 % of control | dose: 300.0 mg/kg/injection, schedule: Q01DX009 (ip), vehicle: saline 87 % of control

CC1(C)COCN1COCCOCN1COCC1(C)C
inactive: dose: 6.25 mg/kg/injection, schedule: Q01DX009 (ip), vehicle: saline 94 % of control | dose: 12.5 mg/kg/injection, schedule: Q01DX009 (ip), vehicle: saline 96 % of control | dose: 25.0 mg/kg/injection, schedule: Q01DX009 (ip), vehicle: saline 101 % of control | [11] 115 % of control | [12] 113 % of control

O=C(O[Si](Cc1ccccc1)(Cc1ccccc1)Cc1ccccc1)N(CCCl)CCCl
inactive: dose: 6.0 mg/kg/injection, schedule: Q01DX009 (ip), vehicle: saline with Tween-80 103 % of control | [2] 108 % of control | [3] 101 % of control and 106 % of control | [4] 113 % of control and 106 % of control

CN=C(N)N/N=C(\C)c1ccc2sc3ccc(/C(C)=N/NC(N)=NC)cc3c2c1
inactive: [3] 108 % of control | [4] 113 % of control | [5] 120 % of control | [10] 119 % of control | [13] 95 % of control

CC(C)NC(=O)N(CCCCBr)N=O
inactive: dose: 6.25 mg/kg/injection, schedule: Q01DX009 (ip), vehicle: Klucel (hydroxypropylcellulose) (HPC) 98 % of control | [6] 118 % of control | dose: 12.5 mg/kg/injection, schedule: Q01DX009 (ip), vehicle: Klucel (hydroxypropylcellulose) (HPC) 98 % of control and 102 % of control | dose: 25.0 mg/kg/injection, schedule: Q01DX009 (ip), vehicle: Klucel (hydroxypropylcellulose) (HPC) 99 % of control and 102 % of control | [7] 116 % of control and 106 % of control | [8] 88 % of control and 96 % of control | [9] 102 % of control

NC=NCC(=O)O
inactive: [11] 108 % of control | [12] 105 % of control | dose: 200.0 mg/kg/injection, schedule: Q01DX009 (ip), vehicle: saline 97 % of control

C/C(=N\O)C(O)c1ccccc1 (stereo unspecified)
inactive: [5] 98 % of control | [10] 107 % of control | [13] 92 % of control

CC(=O)Oc1[nH]c(=O)c2cccc3c2c1CCC3
inactive: [13] 120 % of control

Nc1ncnc2c1ncn2C1OC(COP(=O)(O)OC2C(O)C(COP(=O)(O)OC3C(O)C(COP(=O)(O)OP(=O)(O)OP(=O)(O)O)OC3n3cnc4c(N)ncnc43)OC2n2cnc3c(N)ncnc32)C(O)C1O (stereo unspecified)
inactive: dose: 0.12 mg/kg/injection, schedule: Q01DX009 (ip), vehicle: distilled water + Tween-80 + alcohol 88 % of control | dose: 0.25 mg/kg/injection, schedule: Q01DX009 (ip), vehicle: distilled water + Tween-80 + alcohol 91 % of control | dose: 0.5 mg/kg/injection, schedule: Q01DX009 (ip), vehicle: distilled water + Tween-80 + alcohol 94 % of control | dose: 1.0 mg/kg/injection, schedule: Q01DX009 (ip), vehicle: distilled water + Tween-80 + alcohol 98 % of control

CCC(C)C1NC(=O)C(CC(C)C)NC(=O)C(C(C)C)NC(=O)C2CSSCC(NC1=O)C(=O)N2 (stereo unspecified) (cyclo(CCVLI); disulfide 1-2; configuration not given here)
inactive: dose: 31.25 micrograms/kg/injection, schedule: Q01DX009 (ip), vehicle: Klucel (hydroxypropylcellulose) (HPC) 105 % of control | dose: 62.5 micrograms/kg/injection, schedule: Q01DX009 (ip), vehicle: Klucel (hydroxypropylcellulose) (HPC) 105 % of control | dose: 125.0 micrograms/kg/injection, schedule: Q01DX009 (ip), vehicle: Klucel (hydroxypropylcellulose) (HPC) 96 % of control | dose: 500.0 micrograms/kg/injection, schedule: Q01DX009 (ip), vehicle: Klucel (hydroxypropylcellulose) (HPC) 94 % of control | dose: 1000.0 micrograms/kg/injection, schedule: Q01DX009 (ip), vehicle: Klucel (hydroxypropylcellulose) (HPC) 95 % of control
